Our source for the IC50 values is patent US8420630B2 (Boehringer Ingelheim Pharma GmbH & Co. KG, priority 2001, dated 2013).

Molecules are shown by their SMILES. Where a name gives a salt, the structure may show the parent alone.

For the experiment, the target named is T1, CDK1/cyclinB1 (Homo sapiens, UniProt P06493).
T1 construct: made in house; host or cells: High Five insect cells (Trichoplusia ni), baculovirus coinfection
T1 sequence (P06493 whole entry): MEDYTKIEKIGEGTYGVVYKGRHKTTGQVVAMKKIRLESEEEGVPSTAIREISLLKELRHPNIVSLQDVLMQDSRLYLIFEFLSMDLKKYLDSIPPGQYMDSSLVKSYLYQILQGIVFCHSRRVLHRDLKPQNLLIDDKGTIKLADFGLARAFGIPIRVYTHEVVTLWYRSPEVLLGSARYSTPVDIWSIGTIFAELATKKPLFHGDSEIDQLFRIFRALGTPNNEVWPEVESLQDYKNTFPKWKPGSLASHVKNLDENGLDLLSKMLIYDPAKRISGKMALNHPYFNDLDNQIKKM
T1 sequence (P14635 whole entry partner): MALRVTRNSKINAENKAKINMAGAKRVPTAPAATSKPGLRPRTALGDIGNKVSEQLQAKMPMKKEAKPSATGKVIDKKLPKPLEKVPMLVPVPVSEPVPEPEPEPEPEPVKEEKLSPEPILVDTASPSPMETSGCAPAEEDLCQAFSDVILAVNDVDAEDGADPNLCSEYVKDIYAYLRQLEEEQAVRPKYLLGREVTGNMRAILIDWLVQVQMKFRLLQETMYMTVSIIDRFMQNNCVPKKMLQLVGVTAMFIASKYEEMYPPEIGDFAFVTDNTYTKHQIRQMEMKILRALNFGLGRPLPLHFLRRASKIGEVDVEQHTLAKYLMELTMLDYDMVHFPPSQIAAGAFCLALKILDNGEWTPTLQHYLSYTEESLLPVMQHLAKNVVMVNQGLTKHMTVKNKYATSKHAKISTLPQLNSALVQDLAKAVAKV
Nature of the experiment: Cyclin B1-CDK1 kinase inhibition test. It is filed as biochemical. Conditions: CDK1 tests (Example 13); recombinant cyclin B1/CDK1, substrate histone H1; read-out: CDK1/cyclinB1 IC50 value. In a few lines:
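Baculovirus-expressed CDK1/cyclin B1 phosphorylated histone H1 with ATP mix containing 0.045 mM ATP plus ^33P-ATP for 30 min at 30 °C. Protein was precipitated with TCA and filter-bound radioactivity read by scintillation counting. Olomoucin at 30 and 300 μM final served as internal control.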
For the molecule `NC(=O)c1cccc(Nc2ncc([N+](=O)[O-])c(N3CCc4[nH]cnc4C3)n2)c1` [Example 1(022), 2-(3-aminocarbonyl-phenylamino)-4-(1,4,6,7-tetrahydro-imidazo[4,5-c]pyridin-5-yl)-5-nitro-pyrimidine], the IC50 was below 100 nM.
As to `CC(=O)NCCNc1nc(Nc2ccc(S(=O)(=O)N3CCOCC3)cc2)ncc1C(F)(F)F` [Example 2(057), N-(2-{2-[4-(Morpholin-4-sulphonyl)-phenylamino]-5-trifluoromethyl-pyrimidin-4-ylamino}-ethyl)-acetamide], the IC50 was below 100 nM.
Turning to `O=[N+]([O-])c1cnc(Nc2ccc(Br)cc2)nc1N1CCc2[nH]cnc2C1` [Example 1(116), 2-(4-bromophenylamino)-4-(1,4,6,7-tetrahydro-imidazo[4,5-c]pyridin-5-yl)-5-nitro-pyrimidine], the IC50 was below 100 nM.
With `FC(F)(F)c1cnc(Nc2ccccc2)nc1N1CCc2[nH]cnc2C1` [Example 1(118), 2-phenylamino-4-(1,4,6,7-tetrahydro-imidazo[4,5-c]pyridin-5-yl)-5-trifluoromethyl-pyrimidine], the IC50 is below 100 nM.
The same measure for `COCC(=O)NCCCNc1nc(Nc2ccc3cnn(C)c3c2)ncc1C(F)(F)F` [Example 7(013), 2-methoxy-N-{3-[2-(1-methyl-1H-indazol-6-ylamino)-5-trifluoromethyl-pyrimidin-4-ylamino]-propyl}-acetamide]: below 100 nM; for `O=C(O)c1ccc(Nc2ncc(C(F)(F)F)c(N3CCc4[nH]cnc4C3)n2)cc1` [Example 1(017), 2-(4-carboxy-phenylamino)-4-(1,4,6,7-tetrahydro-imidazo[4,5-c]pyridin-5-yl)-5-trifluoromethyl-pyrimidine]: below 100 nM.
On to `CC(=O)NCCNc1nc(Nc2ccc(Cl)c(Cl)c2)ncc1C(F)(F)F` [Example 2(003), 2-(3,4-dichlorophenylamino)-4-(2-acetylamino-ethylamino)-5-trifluoromethyl-pyrimidine-hydrochloride], for which the IC50 was below 100 nM.
For `O=C1CCCN1CCCNc1nc(Nc2ccc(Cl)cc2)ncc1C(F)(F)F` [Example 1(011), 2-(4-chlorophenylamino)-4-(3-(2-oxo-pyrrolidin-1-yl)-propyl-1-amino)-5-trifluoromethyl-pyrimidine], the IC50 is below 100 nM.
Turning to `COc1cc(C(O)CNc2nc(Nc3ccc(Cl)c(Cl)c3)ncc2C(F)(F)F)ccc1O` (centres unmarked) [Example 1(053), 2-(3,4-dichloro-phenylamino)-4-(2-(4-hydroxy-3-methoxy-phenyl)-2-hydroxy-1-ethylamino)-5-trifluoromethyl-pyrimidine], the IC50 was below 100 nM.
As to `CC(=O)NCCNc1nc(Nc2ccc(N(C)S(C)(=O)=O)cc2)ncc1C(F)(F)F` [Example 2(011), 2-(4-(N-Methyl-N-methylsulphonyl)amino-phenylamino)-4-(2-acetylamino-ethylamino)-5-trifluoromethyl-pyrimidine], the IC50 is below 100 nM.
To `CNC(=O)c1ccc(Nc2ncc(C(F)(F)F)c(NCCNC(C)=O)n2)cc1Cl` [Example 8(003), 4-[4-(2-acetylamino-ethylamino)-5-trifluoromethyl-pyrimidin-2-ylamino]-2-chloro-N-methyl-benzamide] belongs below 100 nM; to `CC(=O)N(C)CC1CCN(c2nc(Nc3ccc(Cl)cc3)ncc2[N+](=O)[O-])CC1` [Example 1(052), 2-(4-chloro-phenylamino)-4-(4-(N-acetyl-N-methyl-aminomethyl)-piperidin-1-yl)-5-nitro-pyrimidine], below 100 nM.
The same measure for `CC(=O)NCCNc1nc(Nc2ccc(C(N)=O)cc2)ncc1Br` [Example 1(663), 4-[4-(2-acetylamino-ethylamino)-5-bromo-pyrimidin-2-ylamino]-benzamide]: below 100 nM.
To `CC(=O)NCCNc1nc(Nc2cccc(S(=O)(=O)N(C)C)c2)ncc1C(F)(F)F` [Example 1(651), N-{2-[2-(3-dimethylsulphamoyl-phenylamino)-5-trifluoromethyl-pyrimidin-4-ylamino]-ethyl}-acetamide] belongs below 100 nM; to `NC1CCCC(Nc2nc(Nc3ccc4ccccc4c3)ncc2C(F)(F)F)C1` (centres unmarked) [Example 1(039), 2-(2-naphthylamino)-4-(3-amino-cyclohexylamino)-5-trifluoromethyl-pyrimidine], below 100 nM.
`OCCCCCNc1nc(Nc2ccc(Cl)c(Cl)c2)ncc1C(F)(F)F` [Example 1(045), 2-(3,4-dichloro-phenylamino)-4-(5-hydroxy-1-pentylamino)-5-trifluoromethyl-pyrimidine]: the IC50 is below 100 nM.
To `CC(=O)NCCNc1nc(Nc2ccc(C(=O)NCc3cc(F)cc(F)c3)cc2)ncc1C(F)(F)F` [Example 8(026), 4-[4-(2-acetylamino-ethylamino)-5-trifluoromethyl-pyrimidin-2-ylamino]-N-(3,5-difluorobenzyl)-benzamide] belongs below 100 nM; to `CN(C)S(=O)(=O)c1ccc(Nc2ncc(C(F)(F)F)c(NCCN3CCCC3=O)n2)cc1` [Example 1(683), N,N-dimethyl-4-{4-[2-(2-oxo-pyrrolidin-1-yl)-ethylamino]-5-trifluoromethyl-pyrimidin-2-ylamino}-phenylsulphonamide], below 100 nM.
Take `O=C1CCCN1CCCNc1nc(Nc2cccc(Br)c2)ncc1C(F)(F)F` [Example 1(047), 2-(3-bromo-phenylamino)-4-(3-(2-oxo-pyrrolidin-1-yl)-propyl-1-amino)-5-trifluoromethyl-pyrimidine]: the IC50 was below 100 nM.
The same measure for `CC(=O)NCCNc1nc(Nc2ccc(C(=O)Nc3ccccn3)cc2)ncc1C(F)(F)F` [Example 8(024), 4-[4-(2-acetylamino-ethylamino)-5-trifluoromethyl-pyrimidin-2-ylamino]-N-pyridin-2-yl-benzamide]: below 100 nM; for `O=C1CCCN1CCCNc1nc(Nc2ccc3[nH]nnc3c2)ncc1C(F)(F)F` [Example 2(036), 1-{3-[2-(1H-Benzotriazol-5-ylamino)-5-trifluoromethyl-pyrimidin-4-ylamino]-propyl}-pyrrolidin-2-one]: below 100 nM; for `CN(C)C1CCC(Nc2nc(Nc3ccc(Cl)c(Cl)c3)ncc2C(F)(F)F)CC1` (centres unmarked) [Example 1(120), 2-(3,4-dichlorophenylamino)-4-(4-dimethylamino-cyclohexylamino)-5-trifluoromethyl-pyrimidine]: below 100 nM.
In the case of `CC(=O)NCCNc1nc(Nc2ccc(C(=O)NC(C)c3ccccc3)cc2)ncc1C(F)(F)F` (centres unmarked) [Example 8(028), 4-[4-(2-acetylamino-ethylamino)-5-trifluoromethyl-pyrimidin-2-ylamino]-N-(1-phenyl-ethyl)-benzamide], the IC50 was below 100 nM.
For the molecule `O=C1CCCN1CCCNc1nc(Nc2ccc3cn[nH]c3c2)ncc1Cl` [Example 2(048), 1-{3-[5-chloro-2-(1H-indazol-6-ylamino)-pyrimidin-4-ylamino]-propyl}-pyrrolidin-2-on], the IC50 was below 100 nM.
Take `CC(=O)NCCNc1nc(Nc2ccc3[nH]ncc3c2)ncc1C(F)(F)F` [Example 2(045), N-{2-[2-(1H-Indazol-5-ylamino)-5-trifluoromethyl-pyrimidin-4-ylamino]-ethyl}-acetamide]: the IC50 is below 100 nM.
Consider `CN1CCC(N(C)c2nc(Nc3ccc(Cl)cc3)ncc2[N+](=O)[O-])CC1` [Example 1(044), 2-(4-chloro-phenylamino)-4-(N-(1-methyl-piperidin-4-yl)-N-methyl-amino)-5-nitro-pyrimidine], for which the IC50 was below 100 nM.
For `NC1CCCC(Nc2nc(Nc3ccc(Cl)cc3)ncc2[N+](=O)[O-])C1` (centres unmarked) [Example 1(034), 2-(4-chloro-phenylamino)-4-(3-amino-cyclohexylamino)-5-nitro-pyrimidine], the IC50 was below 100 nM.
As for `Cn1ncc2ccc(Nc3ncc(C(F)(F)F)c(NCCCNC(=O)Cc4ccccc4)n3)cc21` [Example 7(021), N-{3-[2-(1-methyl-1H-indazol-6-ylamino)-5-trifluoromethyl-pyrimidin-4-ylamino]-propyl}-2-phenyl-acetamide], the IC50 is below 100 nM.
On to `NCCCCNc1nc(Nc2ccc(Cl)c(Cl)c2)ncc1C(F)(F)F` [Example 1(304), 2-(3,4-dichlorophenylamino)-4-(4-aminobutylamino)-5-trifluoromethyl-pyrimidine], for which the IC50 was below 100 nM.
Regarding `CC(=O)NCC1CCCN(c2nc(Nc3ccc(Cl)c(Cl)c3)ncc2C(F)(F)F)C1` (centres unmarked) [Example 1(040), 2-(3,4-dichloro-phenylamino)-4-(3-acetylaminomethyl-piperidin-1-yl)-5-trifluoromethyl-pyrimidine], the IC50 is below 100 nM.
The same measure for `O=C1CCCN1CCCNc1nc(Nc2cccc(Cl)c2)ncc1C(F)(F)F` [Example 1(067), 2-(3-chloro-phenylamino)-4-(3-(2-oxo-pyrrolidin-1-yl)-propyl-1-amino)-5-trifluoromethyl-pyrimidine]: below 100 nM; for `CC(=O)NCCNc1nc(Nc2ccc(S(N)(=O)=O)cc2)ncc1C(F)(F)F` [Example 2(008), 2-(4-aminosulphonyl-phenylamino)-4-(2-acetylamino-ethylamino)-5-trifluoromethyl-pyrimidine]: below 100 nM; for `FC(F)(F)c1cnc(Nc2ccc(Br)cc2)nc1N1CCc2[nH]cnc2C1` [Example 1(019), 2-(4-bromo-phenylamino)-4-(1,4,6,7-tetrahydro-imidazo[4,5-c]pyridin-5-yl)-5-trifluoromethyl-pyrimidine]: below 100 nM.
To `O=C(O)CCc1ccc(Nc2ncc([N+](=O)[O-])c(N3CCc4[nH]cnc4C3)n2)cc1` [Example 1(112), 2-(4-(2-carboxy-1-ethyl)-phenylamino)-4-(1,4,6,7-tetrahydro-imidazo[4,5-c]pyridin-5-yl)-5-nitro-pyrimidine] belongs below 100 nM; to `O=C1CCCN1CCCNc1nc(Nc2ccc3cn[nH]c3c2)ncc1C(F)(F)F` [Example 2(038), 1-{3-[2-(1H-Indazol-6-ylamino)-5-trifluoromethyl-pyrimidin-4-ylamino]-propyl}-pyrrolidin-2-one], below 100 nM.
